Assay results: US20100267561A1, “HERBICIDAL PYRIDAZINONE DERIVATIVES” (priority 2007, published 2010)
Read-outs that look alike come from different tables or passages of the source.

How the values were obtained:
Type in all cases: in vivo
[1] = system: ducksalad (Heteranthera limosa); assay: Test B flooded paddy test plant response; settings: Heteranthera limosa, read-out: Plant response rating, Ducksalad
Summary of the method: (§1)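 Paddy-water application to 2-leaf plants in pots held under 3 cm of flooding; response is a 0–100 visual control rating against controls after 13 to 15 days, and a dash marks a missing result.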

rice (Oryza sativa) = assay: Test B flooded paddy test plant response; settings: Oryza sativa, read-out: Plant response rating, Rice
Summary of the method: as §1

[2] = system: common ragweed (Ambrosia elation); assay: Test B pre-/postemergence plant response; settings: Ambrosia, read-out: Plant response rating, Ragweed; for pest or weed control at 16 g/ha: 16 g ai/ha; for pest or weed control at 31 g/ha: 31 g ai/ha, 100 complete control; for pest or weed control at 62 g/ha: 62 g ai/ha; for pest or weed control at 125 g/ha: 125 g ai/ha
Summary of the method: (§2)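 Visual scoring from 0 (no effect) to 100 (complete control) against untreated controls was done 13 to 15 days after greenhouse treatment. Chemicals were formulated in a surfactant-containing non-phytotoxic solvent and applied to soil preemergence or to 1- to 4-leaf (2-18 cm) plants postemergence.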

[3] = system: johnsongrass (Sorghum halepense); assay: Test B pre-/postemergence plant response; settings: Sorghum halepense, read-out: Plant response rating, Johnsongrass; for pest or weed control at 16 g/ha: 16 g ai/ha; for pest or weed control at 31 g/ha: 31 g ai/ha, 100 complete control; for pest or weed control at 62 g/ha: 62 g ai/ha; for pest or weed control at 125 g/ha: 125 g ai/ha
Summary of the method: as §2

[4] = system: velvetleaf (Abutilon theophrasti); assay: Test B pre-/postemergence plant response; settings: Abutilon theophrasti, read-out: Plant response rating, Velvetleaf; for pest or weed control at 16 g/ha: 16 g ai/ha; for pest or weed control at 31 g/ha: 31 g ai/ha, 100 complete control; for pest or weed control at 62 g/ha: 62 g ai/ha; for pest or weed control at 125 g/ha: 125 g ai/ha
Summary of the method: as §2

[5] = system: pigweed (Amaranthus retroflexus); assay: Test B pre-/postemergence plant response; settings: Amaranthus retroflexus, post-emergence, Postemergence, read-out: Plant response rating, Pigweed
Summary of the method: as §2

[6] = system: large crabgrass (Digitaria sanguinalis); assay: Test B pre-/postemergence plant response; settings: Digitaria sanguinalis, read-out: Plant response rating, Crabgrass, Large; for pest or weed control at 16 g/ha: 16 g ai/ha; for pest or weed control at 31 g/ha: 31 g ai/ha, 100 complete control; for pest or weed control at 62 g/ha: 62 g ai/ha; for pest or weed control at 125 g/ha: 125 g ai/ha
Summary of the method: as §2

[7] = system: common (oilseed) sunflower (Helianthus annuus); assay: Test B pre-/postemergence plant response; settings: Helianthus annuus, pre-emergence, Preemergence, read-out: Plant response rating, Sunflower
Summary of the method: as §2

[8] = system: green foxtail (Setaria viridis); assay: Test B pre-/postemergence plant response; settings: Setaria viridis, read-out: Plant response rating, Foxtail, Green; for pest or weed control at 16 g/ha: 16 g ai/ha; for pest or weed control at 31 g/ha: 31 g ai/ha, 100 complete control; for pest or weed control at 62 g/ha: 62 g ai/ha; for pest or weed control at 125 g/ha: 125 g ai/ha
Summary of the method: as §2

[9] = system: woolly cupgrass (Eriochloa villosa); assay: Test B pre-/postemergence plant response; settings: Eriochloa villosa, read-out: Plant response rating, Cupgrass, Woolly; for pest or weed control at 16 g/ha: 16 g ai/ha; for pest or weed control at 31 g/ha: 31 g ai/ha, 100 complete control; for pest or weed control at 62 g/ha: 62 g ai/ha; for pest or weed control at 125 g/ha: 125 g ai/ha
Summary of the method: as §2

[10] = system: goosegrass (Eleusine indica); assay: Test B pre-/postemergence plant response; settings: Eleusine indica, read-out: Plant response rating, Goosegrass; for pest or weed control at 16 g/ha: 16 g ai/ha; for pest or weed control at 31 g/ha: 31 g ai/ha, 100 complete control; for pest or weed control at 62 g/ha: 62 g ai/ha; for pest or weed control at 125 g/ha: 125 g ai/ha
Summary of the method: as §2

[11] = system: giant foxtail (Setaria faberii); assay: Test B pre-/postemergence plant response; settings: Setaria faberi, read-out: Plant response rating, Foxtail, Giant; for pest or weed control at 16 g/ha: 16 g ai/ha; for pest or weed control at 31 g/ha: 31 g ai/ha, 100 complete control; for pest or weed control at 62 g/ha: 62 g ai/ha; for pest or weed control at 125 g/ha: 125 g ai/ha
Summary of the method: as §2

[12] = system: eastern black (E.B.) nightshade (Solanum ptycanthum); assay: Test B pre-/postemergence plant response; settings: Solanum, pre-emergence, Preemergence, read-out: Plant response rating, Nightshade, E. B.
Summary of the method: as §2

wild oat (Avena fatua) = assay: Test B pre-/postemergence plant response; settings: Avena fatua, read-out: Plant response rating, Oat, Wild; for pest or weed control at 16 g/ha: 16 g ai/ha; for pest or weed control at 31 g/ha: 31 g ai/ha, 100 complete control; for pest or weed control at 62 g/ha: 62 g ai/ha; for pest or weed control at 125 g/ha: 125 g ai/ha
Summary of the method: as §2

[13] = Flood (flooded paddy test), 62 g ai/ha, scale 0 to 100, 0 no effect, 100 complete control
[14] = Flood (flooded paddy test), 125 g ai/ha, scale 0 to 100, 0 no effect, 100 complete control
[15] = Flood (flooded paddy test), 250 g ai/ha, scale 0 to 100, 0 no effect, 100 complete control
[16] = Flood, 31 g ai/ha, scale 0 to 100
[17] = post-emergence, Postemergence, scale 0 to 100
[18] = post-emergence, Postemergence, scale 0 to 100, 0 no effect
[19] = pre-emergence, Preemergence, scale 0 to 100 (0 no effect, 100 complete control)
[20] = pre-emergence, Preemergence, 0 to 100 scale, 0 no effect
[21] = pre-emergence, Preemergence, scale 0 to 100
[22] = 31 g ai/ha, 0 to 100 scale, 0 no effect, 100 complete control

CCc1cc(-c2ccc(C(F)(F)F)cc2)nn1-c1c(O)cnn(C)c1=O [Compound 11, 4-[5-ethyl-3-[4-(trifluoromethyl)phenyl]-1H-pyrazol-1-yl]-5-hydroxy-2-methyl-3(2H)-pyridazinone]
30%: plant injury at 62 g/ha (rice (Oryza sativa); [13])
0%: pest or weed control at 62 g/ha [1, 13] | pest or weed control at 125 g/ha [1, 14] | pest or weed control at 31 g/ha [1, 16] | plant injury at 31 g/ha (rice (Oryza sativa); [16]) | pest or weed control at 16 g/ha [2, 17] | pest or weed control at 31 g/ha [2, 18] | pest or weed control at 62 g/ha [2, 17] | pest or weed control at 125 g/ha [2, 17] | pest or weed control at 16 g/ha [2, 19] | pest or weed control at 31 g/ha [2, 20] | pest or weed control at 62 g/ha [2, 21] | pest or weed control at 125 g/ha [2, 21] | pest or weed control at 16 g/ha [4, 17] | pest or weed control at 31 g/ha [4, 18] | pest or weed control at 62 g/ha [4, 17] | pest or weed control at 125 g/ha [4, 17] | pest or weed control at 16 g/ha [4, 19] | pest or weed control at 31 g/ha [4, 20] | pest or weed control at 62 g/ha [4, 21] | pest or weed control at 125 g/ha [4, 21] | pest or weed control at 16 g/ha ([5]; 16 g ai/ha, scale 0 to 100) | pest or weed control at 31 g/ha ([5]; 31 g ai/ha, scale 0 to 100, 0 no effect, 100 complete control) | pest or weed control at 62 g/ha ([5]; 62 g ai/ha, scale 0 to 100) | pest or weed control at 16 g/ha ([7]; 16 g ai/ha, scale 0 to 100 (0 no effect, 100 complete control)) | pest or weed control at 31 g/ha [7, 22] | pest or weed control at 62 g/ha ([7]; 62 g ai/ha, scale 0 to 100) | pest or weed control at 125 g/ha ([7]; 125 g ai/ha, scale 0 to 100) | pest or weed control at 31 g/ha [12, 22] | pest or weed control at 62 g/ha ([12]; 62 g ai/ha, scale 0 to 100) | pest or weed control at 125 g/ha ([12]; 125 g ai/ha, scale 0 to 100)
60%: plant injury at 125 g/ha (rice (Oryza sativa); [14])
80%: pest or weed control at 16 g/ha (wild oat (Avena fatua); [19])
98%: pest or weed control at 31 g/ha [3, 20] | pest or weed control at 16 g/ha [6, 17] | pest or weed control at 31 g/ha (wild oat (Avena fatua); [20]) | pest or weed control at 62 g/ha (wild oat (Avena fatua); [21])
85%: pest or weed control at 16 g/ha [8, 17] | pest or weed control at 16 g/ha [10, 19]
95%: pest or weed control at 16 g/ha [9, 17]
70%: plant injury at 250 g/ha (rice (Oryza sativa); [15])
100%: pest or weed control at 16 g/ha [3, 17] | pest or weed control at 31 g/ha [3, 18] | pest or weed control at 62 g/ha [3, 17] | pest or weed control at 125 g/ha [3, 17] | pest or weed control at 62 g/ha [3, 21] | pest or weed control at 125 g/ha [3, 21] | pest or weed control at 31 g/ha [6, 18] | pest or weed control at 62 g/ha [6, 17] | pest or weed control at 125 g/ha [6, 17] | pest or weed control at 62 g/ha [6, 21] | pest or weed control at 125 g/ha [6, 21] | pest or weed control at 31 g/ha [8, 18] | pest or weed control at 62 g/ha [8, 17] | pest or weed control at 125 g/ha [8, 17] | pest or weed control at 16 g/ha [8, 19] | pest or weed control at 31 g/ha [8, 20] | pest or weed control at 62 g/ha [8, 21] | pest or weed control at 125 g/ha [8, 21] | pest or weed control at 31 g/ha [9, 18] | pest or weed control at 62 g/ha [9, 17] | pest or weed control at 125 g/ha [9, 17] | pest or weed control at 16 g/ha [9, 19] | pest or weed control at 31 g/ha [9, 20] | pest or weed control at 62 g/ha [9, 21] | pest or weed control at 125 g/ha [9, 21] | pest or weed control at 16 g/ha [10, 17] | pest or weed control at 31 g/ha [10, 18] | pest or weed control at 62 g/ha [10, 17] | pest or weed control at 125 g/ha [10, 17] | pest or weed control at 62 g/ha [10, 21] | pest or weed control at 125 g/ha [10, 21] | pest or weed control at 16 g/ha [11, 17] | pest or weed control at 31 g/ha [11, 18] | pest or weed control at 62 g/ha [11, 17] | pest or weed control at 125 g/ha [11, 17] | pest or weed control at 62 g/ha [11, 21] | pest or weed control at 125 g/ha [11, 21] | pest or weed control at 16 g/ha (wild oat (Avena fatua); [17]) | pest or weed control at 31 g/ha (wild oat (Avena fatua); [18]) | pest or weed control at 62 g/ha (wild oat (Avena fatua); [17]) | pest or weed control at 125 g/ha (wild oat (Avena fatua); [17]) | pest or weed control at 125 g/ha (wild oat (Avena fatua); [21])
90%: pest or weed control at 16 g/ha [3, 19] | pest or weed control at 16 g/ha [6, 19] | pest or weed control at 31 g/ha [6, 20] | pest or weed control at 31 g/ha [10, 20] | pest or weed control at 16 g/ha [11, 19] | pest or weed control at 31 g/ha [11, 20]
40%: pest or weed control at 250 g/ha [1, 15]
5%: pest or weed control at 125 g/ha ([5]; 125 g ai/ha, scale 0 to 100)
